Reference: patent publication US20060009433A1, “Neuroprotective spirostenol pharmaceutical compositions” (priority 2003, published 2006)
Entries after “also recorded” stand apart in the source; their conditions may differ.

Tests used:
[1] = test system: neural stem cells in the sub-ventricular zone (SVZ) of the rat brain; assay: In vivo i.c.v. infusion, neural stem cells of the SVZ (BrdU, DCX immunohistochemistry)
Method: Male Long-Evans rats weighing 300-325 g (3-4 months old) were housed following a natural day-night cycle with food and water ad libitum. Prior to surgery, rats were anesthetized with equithesin (3 ml/kg, i.p.) and then placed on a stereotaxic frame. Using an electrode micromanipulator, the outlet of an osmotic micropump was implanted into the left cerebral ventricle following the coordinates D=3.4 mm, L=1.4 mm and AP=0.92 mm caudal to bregma. The tank of the osmotic pump was implanted in a subcutaneous pocket in the midscapular area of the back of the rat. After surgery, rats were placed on a heating blanket for recovery. During the whole procedure, the body temperature was monitored and kept stable at 37° C. SP-224 at 375 μM solubilized in polypropylene glycol/glycerol/distilled water (50/25/25) was perfused by i.c.v. route at 5 μl per hour for 2 weeks. Rats were sacrificed 3 weeks after the end of the brain infusion by intracardiac perfusion, first with a washing solution (NaCl 8 g/l, dextrose 4 g/l, sucrose 8 g/l, calcium chloride 0.23 g/l, sodium cacodylate anhydrous 0.25 g/l, in deionized water) and then with fixative cacodylate buffer (sucrose 40 g/l, paraformaldehyde 40 g/l, sodium cacodylate anhydrous 10.72 g/l, in deionized water). Brains were stored in fixative cacodylate buffer for an additional week before being embedded in paraffin. To study the neural stem cells proliferation rats were daily injected with a BrdU solution at 100 mg/kg. The first injection took place the day following the surgery and the last injection was performed the day previous to the euthanasia.
Brains were embedded in a paraffin block […] and cut into 20-μm thick slices.
This experiment was conducted to validate the results obtained in vitro and to assess the ability of the SP-224 to induce a neuronal differentiation of the neural stem cells present in the sub-ventricular zone (SVZ) of the rat brain. The SP-224 was administered in a solution at 375 μM by intra-cerebroventricular route for 2 weeks, corresponding to a total quantity of […] of SP-224 per rat. […]

[2] = test system: Mouse embryonic teratocarcinoma P19 cells; assay: Neurites-like sprouting in P19 cells; type: cell-based; conditions: 90 μM, 2 days, then 5 days wash-out
Method: (§1) Mouse embryonic teratocarcinoma P19 cells were cultured at 37° C. in […] in Alpha Minimum Essential medium with ribonucleosides and deoxyribonucleosides containing bovine calf serum (7.5%) and fetal bovine serum (2.5%) on 13 mm diameter glass cover-slip. PC12 cells (rat pheochromocytoma neurons) were cultured at 37° C. and 5% CO2 in RPMI 1640 medium devoid of glutamine and supplemented with 10% fetal bovine serum and 5% horse serum on 13 mm diameter glass cover-slip. When cells reached 70% confluence, the medium was replaced fresh medium containing 90 μM SP-224. P19 and PC12 cells were then incubated for 2 days before SP224 was washed out and replaced by standard medium. The culture medium was changed every 2 days for 5 days or every 2 days for 30 days before cells were fixed for immunocytochemistry. The NT2 cells were treated for 5 days and washed-out for 10 days.
(§2) The above-referenced cell lines were used because they have been extensively used as a model of neuronal differentiation (Houldsworth et al., 2002; Chou et al., 2003; Das et al., 2004). To induce the sprouting, cells were plated in 6-well plates and treated for 2 days (P19) or 5 days (PC12 and NT2) with 90 μM SP-224 before being washed with fresh medium and cultured for 5 (P19) or 10 (PC12 and NT2) more days. […] Meantime, we observed a growth arrest of the treated-cells. […]

[3] = test system: NT2 human neuronal cells; assay: Neurites-like sprouting in NT2 cells; type: cell-based; conditions: 90 μM, 5 days, then 10 days wash-out
Method: as §1, §2

[4] = test system: PC12 rat pheochromocytoma cells; assay: Neurites-like sprouting in PC12 cells; type: cell-based; conditions: 90 μM, then wash-out
Method: as §1, §2

[5] = test system: P19 cells; assay: Neuronal and glial markers in differentiated P19 cells (immunocytochemistry); type: cell-based, mouse
Method: as §1
P19 cells were fixed with methanol at −20° C. for 15 minutes before being permeabilized for 30 minutes at room temperature with 1×PBS pH=7.4 containing 0.1% Triton 100×. Cell were incubated for 24 hours at 4° C. with antibodies raised against GAP43 (1/1000), DCX (1/3000), βIII Tubulin (1/500), synaptophysin (1/200), MAP2 (1/500), ChAT (1/2000), GFAP (1/1000) or CNPase (1/250). […] Cells nucleus was counterstained using DAPI or ethidium bromide.
The ability of SP-224 to induce the neuronal differentiation of the P19 cells was assessed as follows. P19 cells were treated for 2 days followed by a 5 days wash out period (FIG. 26). The neuronal markers expression was also studied after 28 days (FIG. 27) in order to in order to verify whether the expression observed at 5 days was temporary or permanent. No neuronal marker was observed on the control except for the synaptophysin for which the staining was, however, very weak (FIG. 26C). […] After 28 days of wash out the neuronal differentiation is even more important.

[6] = 375 μM i.c.v., 5 μl per hour for 2 weeks, sacrifice 3 weeks later
[7] = 2 days treatment, 28-30 days wash out

SMILES: CC1CCC2(NC1)OC1CC3C4CC=C5CC(O)CCC5(C)C4CCC3(C)C1C2C [SP224, (20α)-25ζ-methyl-(22R,26)-azacyclofurost-5-en-3ζ-ol]
- toxic effect on the brain tissue ([1]; 375 μM i.c.v. for 2 weeks): without any apparent toxic effect on the brain tissue
- BrdU immunostaining, neural stem cell self-renewal/proliferation in the SVZ [1, 6]: able to induce a self-renewal of the neural stem cells in the SVZ; also recorded: dramatic increase of the BrdU
- expression of early neuronal marker DCX in the SVZ cells [1, 6]: induced the expression of the early neuronal marker DCX
- sprouting of P19 cells [2]: significant sprouting
- sprouting of NT2 cells [3]: significant sprouting
- sprouting of PC12 cells [4]: significant sprouting
- astrocyte marker GFAP / differentiation into astrocytes ([5]; 90 μM 2 days, 5 days SP-224 free medium): no positive GFAP signal was detected; also recorded: did not trigger the differentiation of the P19 cells into astrocytes
- expression of ChAT ([5]; 90 μM 2 days, 5 days wash out): strong expression
- expression of MAP2 ([5]; 90 μM 2 days, 5 days wash out): strong expression
- expression of migrating neuroblasts marker DCX ([5]; 90 μM 2 days, 5 days wash out): strongly expressed
- expression of synaptophysin ([5]; 90 μM 2 days, 5 days wash out): strong expression
- expression of βIII tubulin ([5]; 90 μM 2 days, 5 days wash out): strong expression
- network of axons and dendrites (βIII tubulin staining) [5, 7]: dramatically extended
- synaptophysin labeling [5, 7]: established synaptic connections
